# According to patent US20020128264A1, “Methods for treatment of conditions affected by activity of multidrug transporters” (priority 2000, published 2002):
# Like-named read-outs stand apart in the source and are kept apart here.
# Key:
# MRPs [1] = experiment: Effect of MRP inhibitors on efflux of 14C-AIT-082 from brain after icv administration; format: in vivo, mice; conditions: icv co-administration with 14C-AIT-082
# Experimental: To examine the role of P-gp and MRP, various substrates/inhibitors were co-administered with ^14C-AIT-082. […] In all experiments the control group of animals was given ^14C-AIT-082 in PBS. Additionally, in experiments in which probenecid or verapamil were used, a second control group was given ^14C-AIT-082 in PBS containing 370 mM NaOH and 370 mM HCl, pH 7.4, or 14C-AIT-082 in PBS with 4.2% ethanol, pH 7.4, respectively.
# All data are presented as mean ±S.E. For comparisons of means from 2 groups an unpaired Student's t-test was used. […]
# MRPs [2] = experiment: Effect of MRP inhibitors on efflux of 14C-AIT-082 from brain after ipc administration; format: in vivo, mice; conditions: ipc co-administration with 14C-AIT-082
# Experimental: Mice were anesthetized and then immobilized in a stereotaxic apparatus with a mouse adaptor coupled to a microinjection unit (Kopf, Tujunga, Calif.). […] Back flux of injection fluid was collected and at various times after injection brains were removed. The amount of radioactivity in brain, back flux and injection mixture was measured. The amount of radioactivity in the brain was corrected for the back flux and the log of this corrected dpm was plotted against time. The t½ was calculated as described above.
# As above, all experiments included a control group in which ^14C-AIT-082 was administered in PBS.
# [3] = Intracerebroventricular (icv) efflux from brain; format: in vivo, mice; conditions: icv administration
# Experimental: (§1) Male Swiss-Webster CFW mice were supplied by Charles River Laboratories (Hollister, Calif.) and all experiments were conducted according to the NIH Guide on Care and Use of Laboratory Animals. Mice were 2-3 months old at the time of use.
# (§2) These experiments were conducted according to the method of Banks et al. (1997) with minor modifications. The skull was exposed and, with a guarded 25 g needle, a hole was made through the skull at 1 mm anterior posterior (AP) and 1 mm lateral left (LL), relative to Bregma, and 3.5 mm dorsal ventral (DV), with respect to the skull. A guarded 1 μL Hamilton syringe (25 g) was used to inject 1 μL of PBS containing ^14C-AIT-082 (˜4.5×10^4 dpm/μL), ^3H-sucrose (˜3×10^4 dpm/μL), or ^3H-quinidine (˜3×10^4 dpm/μL) icv into mice. After injection and upon withdrawing the needle, there was often back flux of fluid that was collected. At various times after injection the amount of radioactivity remaining in the brain was determined. The amount of radioactivity in the back flux and injection mixture was also determined. Radioactivity in brain was corrected for the back flux and the log of this corrected dpm was plotted against time. The t½, was the inverse of the slope of the line multiplied by 0.301 (Banks et al., 1997).
# (§3) All data are presented as mean ±S.E. For comparisons of means from 2 groups an unpaired Student's t-test was used. For comparisons of means from 3 groups, ANOVA was performed coupled with Scheffe's post-hoc analysis.
# [4] = Intraparenchymal (ipc) efflux from brain; format: in vivo, mice; conditions: ipc administration
# Experimental: as §1
# These experiments were conducted according the method of Banks et al. (1994) with minor modifications. Mice were anesthetized and then immobilized in a stereotaxic apparatus with a mouse adaptor coupled to a microinjection unit (Kopf, Tujunga, Calif.). A small hole was made in the skull with a Dremel drill (model 770; 2.4 mm drill bit, model 107) at −1 mm AP and 1 mm LL relative to Bregma. Using a guarded 0.5 μL Hamilton syringe (25 g), 0.1 μL PBS containing ^14C-AIT-082 ([…]) or ^3H-sucrose (˜5×10^4 dpm/μL) was injected ipc at […] with respect to the skull. Back flux of injection fluid was collected and at various times after injection brains were removed. The amount of radioactivity in brain, back flux and injection mixture was measured. The amount of radioactivity in the brain was corrected for the back flux and the log of this corrected dpm was plotted against time. The t½ was calculated as described above.
# as §3
# P-gp = target: T1, P-gp (Mus musculus, UniProt P21447); experiment: Effect of AIT-082 on efflux of 3H-quinidine (P-gp substrate) from brain after icv administration; format: in vivo, mice; conditions: quinidine is a P-gp substrate
# T1 construct: from tissue; host or cells: brain of living mice (in vivo efflux after icv or ipc injection)
# T1 sequence (P21447 whole entry): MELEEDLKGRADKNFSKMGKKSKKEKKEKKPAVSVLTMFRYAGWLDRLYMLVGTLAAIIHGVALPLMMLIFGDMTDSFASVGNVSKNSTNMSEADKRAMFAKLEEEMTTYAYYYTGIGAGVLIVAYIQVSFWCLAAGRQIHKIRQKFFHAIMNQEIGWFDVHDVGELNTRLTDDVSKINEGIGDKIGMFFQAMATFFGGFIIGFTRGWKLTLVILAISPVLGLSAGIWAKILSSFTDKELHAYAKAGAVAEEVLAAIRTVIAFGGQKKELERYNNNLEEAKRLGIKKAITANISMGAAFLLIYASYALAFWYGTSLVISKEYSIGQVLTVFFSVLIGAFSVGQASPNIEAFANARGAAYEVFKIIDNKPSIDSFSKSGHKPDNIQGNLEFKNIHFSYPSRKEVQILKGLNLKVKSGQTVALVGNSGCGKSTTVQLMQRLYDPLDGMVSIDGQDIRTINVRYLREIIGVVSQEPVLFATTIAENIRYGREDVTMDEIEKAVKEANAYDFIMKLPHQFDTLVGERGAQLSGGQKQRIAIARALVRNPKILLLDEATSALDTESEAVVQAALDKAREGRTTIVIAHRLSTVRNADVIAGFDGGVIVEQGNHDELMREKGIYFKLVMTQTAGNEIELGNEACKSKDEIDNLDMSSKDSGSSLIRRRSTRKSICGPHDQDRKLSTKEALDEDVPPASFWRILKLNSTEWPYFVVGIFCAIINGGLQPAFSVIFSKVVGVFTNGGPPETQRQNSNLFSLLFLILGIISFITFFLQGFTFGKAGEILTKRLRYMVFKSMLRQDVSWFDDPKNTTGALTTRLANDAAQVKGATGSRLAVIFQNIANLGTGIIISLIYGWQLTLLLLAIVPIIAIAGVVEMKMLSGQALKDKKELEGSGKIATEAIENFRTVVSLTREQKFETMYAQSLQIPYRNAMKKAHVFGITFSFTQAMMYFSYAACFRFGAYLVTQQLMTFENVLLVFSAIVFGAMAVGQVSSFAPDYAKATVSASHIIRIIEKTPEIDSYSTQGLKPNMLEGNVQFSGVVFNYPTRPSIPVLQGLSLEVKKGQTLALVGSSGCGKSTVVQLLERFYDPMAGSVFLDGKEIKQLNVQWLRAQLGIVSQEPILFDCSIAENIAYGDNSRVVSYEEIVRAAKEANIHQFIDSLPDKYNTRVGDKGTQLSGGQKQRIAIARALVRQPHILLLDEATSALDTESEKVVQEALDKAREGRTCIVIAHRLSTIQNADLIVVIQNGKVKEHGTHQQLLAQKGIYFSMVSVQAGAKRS
# Experimental: as §2, §3
# [5] = Taylor et al., 2000, cited from earlier work
# [6] = Taylor et al., 2000, cited from earlier work; remark: listed apart in the source
# [7] = passively transported compound, t½ significantly higher
smiles,measurement,setting,value
CCCN(CCC)S(=O)(=O)c1ccc(C(=O)O)cc1 [probenecid],effect on efflux of 14C-AIT-082 from brain,MRPs [1],significantly inhibited
same,effect on efflux of 14C-AIT-082 from brain,MRPs [2],significantly inhibited
"O=C(CCn1cnc2c(=O)[nH]cnc21)Nc1ccc(C(=O)O)cc1 [AIT-082, N-4-carboxyphenyl-3-(6-oxohydropurin-9-yl)propanamide]",effect of excess unlabeled AIT-082 on efflux of 14C-AIT-082 from brain (saturability),[3],inhibited
same,t½ of transport out of brain,"[3]; mice, mean ±S.E.",20 ± 1.0 min
same,effect of excess unlabeled AIT-082 on efflux of 14C-AIT-082 from brain (saturability),[4],inhibited
same,t½ of transport out of brain,"[4]; mice, mean ±S.E.",35.0 ± 1.9 min
same,effect on efflux of 3H-quinidine from brain,P-gp,inhibited
same,effect of excess unlabeled AIT-082 on efflux of 14C-AIT-082 from brain,[5],inhibited
same,t½ of transport out of brain,[5]; after intracerebroventricular administration,approximately 20 minutes
same,mechanism of transport into brain,[6],non-saturable mechanism
same,amount detectable in cortical extracellular fluid,[6]; capillary depletion and microdialysis,low micromolar quantities
"OC[C@H]1O[C@@](CO)(O[C@H]2O[C@H](CO)[C@@H](O)[C@H](O)[C@H]2O)[C@@H](O)[C@@H]1O [^3H-sucrose, sucrose, reference compound]",transport out of brain compared with 14C-AIT-082,[3]; [7],significantly slower
same,transport out of brain compared with 14C-AIT-082,[4]; [7],significantly slower
